Data set [1] can be described thus: Interconversion (competitive slurry) experiments Form B / Form H. The format is physicochemical. Conditions: various solvent systems, between ambient temperature and approximately 75° C. As to the method:
Solutions of Compound I were prepared by adding sufficient solids to a given solvent or solvent system at ambient conditions such that undissolved solids were present. The mixture was then agitated in a closed vial at ambient or elevated temperature for an extended period of time. Solids were collected by vacuum filtration and analyzed.

Data set [2] in a line: Solubility estimates at ambient temperature (solvent aliquot addition, visual). The data set is classed as physicochemical. As to conditions: thermodynamic from solid. How it is done:
Aliquots of various solvents were added to measured amounts of Compound I with agitation (typically sonication) at ambient temperature until complete dissolution was achieved, as judged by visual observation. Solubilities were calculated based on the total solvent used to give a solution; actual solubilities may be greater because of the volume of solvent portions utilized or a slow rate of dissolution. […] If dissolution occurred at the first aliquot the value was reported as “>”.

Another data set deals with B-Raf V600E kinase (Homo sapiens, UniProt P15056, V600E). Briefly: B-Raf V600E kinase inhibition.
Chain of B-Raf V600E kinase (P15056 whole entry V600E): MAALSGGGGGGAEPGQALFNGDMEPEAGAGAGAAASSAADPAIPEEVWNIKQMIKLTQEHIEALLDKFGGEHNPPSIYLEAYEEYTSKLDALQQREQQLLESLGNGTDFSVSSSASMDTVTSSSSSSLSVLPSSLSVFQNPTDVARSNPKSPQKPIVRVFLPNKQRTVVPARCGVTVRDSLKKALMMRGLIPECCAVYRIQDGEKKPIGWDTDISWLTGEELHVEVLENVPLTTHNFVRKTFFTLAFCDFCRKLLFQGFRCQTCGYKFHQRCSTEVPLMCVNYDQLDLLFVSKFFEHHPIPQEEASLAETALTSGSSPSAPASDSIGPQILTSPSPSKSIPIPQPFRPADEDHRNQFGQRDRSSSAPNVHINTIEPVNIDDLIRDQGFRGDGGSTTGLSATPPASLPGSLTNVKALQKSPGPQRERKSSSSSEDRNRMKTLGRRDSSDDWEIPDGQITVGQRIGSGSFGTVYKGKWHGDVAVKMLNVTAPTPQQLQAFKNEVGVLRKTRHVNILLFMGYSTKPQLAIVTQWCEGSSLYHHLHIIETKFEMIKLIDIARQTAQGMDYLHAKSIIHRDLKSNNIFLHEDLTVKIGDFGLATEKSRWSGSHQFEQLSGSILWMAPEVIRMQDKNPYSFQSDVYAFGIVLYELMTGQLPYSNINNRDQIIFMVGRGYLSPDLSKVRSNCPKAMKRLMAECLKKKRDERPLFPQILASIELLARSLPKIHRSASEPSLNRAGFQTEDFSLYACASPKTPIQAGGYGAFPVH

The structures appear in SMILES notation. Converted amounts (≈) assume the structure as drawn.

As for `O=C(c1c(F)ccc(NS(=O)(=O)N2CC[C@@H](F)C2)c1F)c1c[nH]c2ncc(-c3cnc(C4CC4)nc3)cc12` [Compound I Form B, (3R)—N-(3-(5-(2-cyclopropylpyrimidin-5-yl)-1H-pyrrolo[2,3-b]pyridine-3-carbonyl)-2,4-difluorophenyl)-3-fluoropyrrolidine-1-sulfonamide], the “relative stability of solid forms (competitive slurry)” value in data set [1] (listed as Form B) is on record as “less stable than Form H”. In addition, the solubility (usually the dissolved amount per volume that the medium holds) in data set [2] (aqueous with cosolvent or surfactant or cyclodextrin, EtOH/Water (75/25 vol/vol)) is around 5000 µg/mL (≈ 9.22 mM); in data set [2] (organic solvent or mixture, ACN), around 5000 µg/mL (≈ 9.22 mM); in data set [2] (organic solvent or mixture, Acetone), around 36000 µg/mL (≈ 66.4 mM); in data set [2] (organic solvent or mixture, DCM), below 1000 µg/mL; in data set [2] (organic solvent or mixture, DMF) it was above 97000 µg/mL; in data set [2] (organic solvent or mixture, DMSO), above 84000 µg/mL. For the same compound, the solubility is above 103000 µg/mL in data set [2] (organic solvent or mixture, Dioxane); around 5000 µg/mL (≈ 9.22 mM) in data set [2] (organic solvent or mixture, EtOAc); around 1000 µg/mL (≈ 1.84 mM) in data set [2] (organic solvent or mixture, EtOH); below 1000 µg/mL in data set [2] (organic solvent or mixture, Heptane); below 1000 µg/mL in data set [2] (organic solvent or mixture, IPA); below 2000 µg/mL in data set [2] (organic solvent or mixture, MTBE). The solubility is around 4000 µg/mL (≈ 7.37 mM) in data set [2] (organic solvent or mixture, MeOH); above 102000 µg/mL in data set [2] (organic solvent or mixture, THF); below 2000 µg/mL in data set [2] (organic solvent or mixture, t-BuOH); below 1000 µg/mL in data set [2] (Water).
Turning to `O=C(c1c(F)ccc(NS(=O)(=O)N2CC[C@@H](F)C2)c1F)c1c[nH]c2ncc(-c3cnc(C4CC4)nc3)cc12` [Compound I Form H, (3R)—N-(3-(5-(2-cyclopropylpyrimidin-5-yl)-1H-pyrrolo[2,3-b]pyridine-3-carbonyl)-2,4-difluorophenyl)-3-fluoropyrrolidine-1-sulfonamide], in data set [1] (listed as Form H), the “relative stability of solid forms (competitive slurry)” value is “more stable than Form B”.
For the compound `O=C(c1c(F)ccc(NS(=O)(=O)N2CC[C@@H](F)C2)c1F)c1c[nH]c2ncc(-c3cnc(C4CC4)nc3)cc12` [Compound I, (3R)—N-(3-(5-(2-cyclopropylpyrimidin-5-yl)-1H-pyrrolo[2,3-b]pyridine-3-carbonyl)-2,4-difluorophenyl)-3-fluoropyrrolidine-1-sulfonamide], the IC50 (in general, the concentration that inhibits the measured activity by half) on B-Raf V600E kinase is below 100 nM.

These data come from US10316032B2, “Solid forms of a compound for modulating kinases” (Plexxikon Inc., priority 2015, dated 2019).
